Reference: patent US9243227B2, “Cytotoxic T lymphocyte” (Mie University, priority 2004, dated 2016)

Tests used:
[1] = system: CD8-positive cells derived from immunized HHDA2402+/−β2m−/− mice; test: IFN-gamma ELISPOT assay (mice), gene gun-immunized HLA-A2402 transgenic mice; assay type: cell-based, mouse; details: HHDA2402 mice immunized twice by gene gun with plasmid of the parent antigen; CD8-negative cells pulsed with peptide as target cells; FIG. 1A-1C
Method: A DNA construct (HHDA2402) containing an HLA-A2402 leader sequence, human β2 microglobulin, HLA-A2402 α1 and α2 domains, an H-2D^b α3 transmembrane domain, and a cytoplasm domain was constructed. The resulting construct was cloned into an expression vector pcDNA 3.1 (manufactured by Invitrogen Corporation). The HHDA2402 construct (4 kb SalI-NotI fragment) was injected into fertilized eggs of C57BL/6 mice, to give HHDA2402-expressing mice. Then, the […] mice were bred with β2m−/− mice (manufactured by The Jackson Laboratory). The resulting HHDA2402+/−β2 m+/− were bred with β2m−/− mice to give HHDA2402+/−β2m−/− mice (referred to hereinafter as “HHDA2402 mice”).
Using Helios Gene Gun System (trade name, manufactured by Bio-Rad Laboratories, Inc.), gold particles coated with plasmid DNA were administered endoabdominally at a helium pressure of from 350 to 400 psi into HHDA2402 mice (6-to 8-week-old, female). The gold particles were prepared according to a manufacturer's manual. After 2 weeks, booster administration was carried out. After 1 week, spleen cells were collected.
One week after the final immunization, MACS system (trade name, manufactured by Mitlenyi Biotec) using CD8 alpha (Lyt 2) microbeads was used, to select CD8-positive T cells. The purity of the resulting T cell fraction analyzed by flow cytometry was 95% or more.
(§1) A 96-well nitrocellulose ELISPOT plate (trade name: MAHA 54510, manufactured by Millipore Corporation) was incubated overnight with 2 μg/milliliter anti-mouse IFN-gamma mAb (trade name: clone R4-6A2, manufactured by PharMingen Company) at 4° C., to coat the plate. Each well was washed with phosphate buffered physiologic saline (PBS). The well after washing was blocked by incubation at 37° C. for 2 hours in FCS-containing RPMI1640 medium.
Fresh CD8-positive cells (1×10^5 cells/well) derived from the immunized mice and CD8-negative cells (1×10^6 cells/well) pulsed with various peptides were seeded to each well and regulated so as to have a final volume of 200 μl. Then, the cells were cultured at 37° C. for 22 hours. Thereafter, the cells were washed sufficiently with PBS containing 0.05 wt % Tween™ 20 (referred to as “PBS-Tween”). Two hundreds microliters of 1.25 μg/milliliter biotinylated anti-mouse IFN-gamma mAb (trade name, manufactured by PharMingen Company) was added to the cells after washing, and the cells were then cultured overnight at 4° C. The cells thus obtained were washed with PBS-Tween. One hundred microliters of 1 μg/milliliter streptavidin-alkaline phosphatase conjugate (trade name, manufactured by Mabtech Ltd.) was added to the cells after washing. Thereafter, the resulting mixture was incubated at room temperature for 90 minutes, to carry out reaction. The resulting product was washed with PBS-Tween and then stained with an alkaline phosphatase conjugate substrate kit (trade name, manufactured by Bio-Rad Laboratories, Inc.). Thereafter, the product after staining was washed with distilled water to terminate the reaction. Then, the plate was dried and spots were counted.
HHDA2402 mice were immunized with an expression plasmid carrying EB virus-derived EBNA 3A gene by a gene gun. After immunized twice, spleen-derived CD8+ T cells were prepared. CD8-negative cells pulsed with the EBNA 3A246-254 peptide were used as target cells, to carry out ELISPOT assay. […]

[2] = system: CD8-positive cells of wild-type C57BL6 mice; test: IFN-gamma ELISPOT assay, same experiment in wild-type mice; assay type: cell-based, mouse; details: same experiment as in HHDA2402 mice
Method: as §1
Fresh CD8-positive cells (1×10^5 cells/well) derived from the immunized mice and CD8-negative cells (1×10^6 cells/well) pulsed with various peptides were seeded to each well and regulated so as to have a final volume of 200 μl. Then, the cells were cultured at 37° C. for 22 hours. Thereafter, the cells were washed sufficiently with PBS containing 0.05 wt % Tween™ 20 (referred to as “PBS-Tween”). Two hundreds microliters of 1.25 μg/milliliter biotinylated anti-mouse IFN-gamma mAb (trade name, manufactured by PharMingen Company) was added to the cells after washing, and the cells were then cultured overnight at 4° C. The cells thus obtained were washed with PBS-Tween. One hundred microliters of 1 μg/milliliter streptavidin-alkaline phosphatase conjugate (trade name, manufactured by Mabtech Ltd.) was added to the cells after washing. […] Then, the plate was dried and spots were counted. […]

[3] = system: human bulk CTLs sensitized with mRNA-introduced autologous CD4+ PHA blast cells; test: IFN-γ ELISPOT assay (human) with peptide-pulsed T2A24 cells; assay type: cell-based
Method: On the 0th day, PHA (trade name: HA15, manufactured by Murex S.A.) was added to the medium in each well of the plate at a final concentration of 10 μg/milliliter. On the 3rd day, half amount of the medium was exchanged with the above medium containing IL-2 (20 U/milliliter) and IL-7 (40 ng/milliliter). Exchange of the medium was repeated every 3 days, whereby activated CD4-positive cells were obtained. The mRNA was introduced by electroporation into the activated CD4-positive cells at 14 to 28 days after culture was initiated. The resulting cells were used below as antigen-presenting cells.
MACS CD8 Microbeads (trade name, manufactured by Miltenyi Biotec) were used, to separate CD8+ T cells from PBMC. The number 5×10^5 cells of CD8+ T cells thus obtained were stimulated with radiation (30 Gy)-irradiated 1×10^5 mRNA-introduced CD4+ PHA blast cells in a 96-well round plate (manufactured by Nunc Corporation). After 7 days, the CD8+ T cells were stimulated again with radiation (30 Gy)-irradiated 1×10^5 mRNA-introduced CD4+ PHA blast cells, and then cultured in an IL-2 (20 IU/milliliter)-containing RPMI1640 medium for 7 days.
To amplify the sensitized CD8+ T cell group containing the antigen-specific CTLs, autologous LCLs (5×10^6 cells) into which the target antigen mRNA was introduced, autologous PBMCs (2.5×10^7 cells), and IL-2 (20 IU/milliliter) were added to the sensitized CD8+ T cell group. The resulting mixture was cultured in the absence of anti-CD3 antibody in a 25-milliliter flask (manufactured by Corning Incorporated).
A 96-well nitrocellulose ELISPOT plate (trade name: MAHA 54510, manufactured by Millipore Corporation) was coated by overnight incubation at 4° C. with 2 μg/milliliter antihuman IFN-γ mAb (trade name: 1-D1K). Each well was washed with PBS, and then blocked by incubation at 37° C. for 2 hours with RPMI1640 medium containing 10 wt % human AB serum. Effector cells (2×10^4 cells/well) and peptide-pulsed T2A24 cells (5×10^4 cells/well) were seeded to each well. […] Then, the plate was dried and spots were counted.

[4] = system: CD8+ cells from HLA-A2402-positive healthy normal volunteers; test: In vitro induction of human CTLs using CD8− PBMC pulsed with a peptide; assay type: cell-based; details: one stimulation with CD8-negative PBMC pulsed with 10 μM peptide; 10 days after mixed lymphocyte reaction in vitro
Method: The number 1×10^7 of CD8-negative PBMC were pulsed with 10 μM peptide by incubation at room temperature for 1 hour and at 37° C. in 5% CO2 for 1 hour, in 200 μl RPMI1640 medium containing 25 mM Hepes, 10 wt % inactivated human AB-positive serum, 2 mM L-glutamine, 100 U/milliliter penicillin, and 100 μg/milliliter streptomycin. The resulting cells were used as antigen-presenting cells. The number 5×10^5 of CD8+ T cells that were separated were then stimulated by incubation for from 10 to 12 days with 1×10^6 cells of the peptide-pulsed CD8− PBMC. On Days 1, 4 and 7, half amount of the medium was exchanged with fresh one, and human IL-2 (20 IU/milliliter) and IL-7 (50 ng/milliliter) were added thereto. Culturing for induction was conducted in 200 μl RPMI1640 medium (containing 25 mM Hepes, 10 wt % inactivated human AB serum, 2 mM L-glutamine, 100 U/milliliter penicillin, 100 μg/milliliter streptomycin). […]
In staining, sensitized CD8+ T cells were reacted with 20 μg/milliliter tetramer at 37° C. for 30 minutes, and then reacted with a tricolor anti-CD8 monoclonal antibody (trade name, Caltag Laboratories, Burlingame, Calif., USA) on ice for 15 minutes. After washing, the stained cells were analyzed by flow cytometry (trade name: FACSCalibur, manufactured by Becton Dickinson, and Company). […]

Sequence	peptide-specific CTL response in ELISPOT assay (immunogenicity of peptide) [1]	peptide-specific CTL response in ELISPOT assay [2]	IFN-γ release in ELISPOT with peptide-pulsed T2A24 as target cell ([3]; T2A24 pulsed with SAGE715-723, control HER263-71, FIG. 4C)	induction of peptide-specific bulk CTLs, IFN-γ ELISPOT ([3]; stimulation twice with CD4+ blast cells with truncated SAGE mRNA, T2A24 pulsed with peptide vs control peptide, FIG. 4A)	HLA-A2402+ healthy normal humans in whom SAGE715-723 HLA-A24 tetramer-positive T cells were detected [4]	IFN-γ ELISPOT reaction to T2A24 cells pulsed with peptide ([3]; MAGE-A4-specific bulk CTLs amplified with mRNA-introduced autologous LCL, autologous PBMC and IL-2, FIG. 2 panel B)
LYKPDSNEF (listed as Homo sapiens) [SAGE776-784]	positive	positive				
VYGEPRKLL (listed as Homo sapiens) [MAGE-A4239-247]	positive	positive				
LYATVIHDI (listed as Homo sapiens) [SAGE715-723]	positive		IFN-γ was released	specific bulk CTLs were inducted	three out of six	
RYSIFFDYM (Epstein-Barr virus) [EBNA3A246-254, reference compound]	peptide-specific CTLs were detected					
NYKRCFPVI (listed as Homo sapiens) [MAGE-A4143-151]	positive					reaction specific
